# Legend:
# [1] = target: T1, biotinylated human siglec-2/CD22 protein-His-Avitag (Homo sapiens, UniProt P20273); assay: SPR binding to human siglec-2/CD22; conditions: steady-state analysis, read-out: Human CD22 affinity
# T1 construct: purchased Acro Biosystems SI2-H82E3
# T1 sequence (P20273 20-847): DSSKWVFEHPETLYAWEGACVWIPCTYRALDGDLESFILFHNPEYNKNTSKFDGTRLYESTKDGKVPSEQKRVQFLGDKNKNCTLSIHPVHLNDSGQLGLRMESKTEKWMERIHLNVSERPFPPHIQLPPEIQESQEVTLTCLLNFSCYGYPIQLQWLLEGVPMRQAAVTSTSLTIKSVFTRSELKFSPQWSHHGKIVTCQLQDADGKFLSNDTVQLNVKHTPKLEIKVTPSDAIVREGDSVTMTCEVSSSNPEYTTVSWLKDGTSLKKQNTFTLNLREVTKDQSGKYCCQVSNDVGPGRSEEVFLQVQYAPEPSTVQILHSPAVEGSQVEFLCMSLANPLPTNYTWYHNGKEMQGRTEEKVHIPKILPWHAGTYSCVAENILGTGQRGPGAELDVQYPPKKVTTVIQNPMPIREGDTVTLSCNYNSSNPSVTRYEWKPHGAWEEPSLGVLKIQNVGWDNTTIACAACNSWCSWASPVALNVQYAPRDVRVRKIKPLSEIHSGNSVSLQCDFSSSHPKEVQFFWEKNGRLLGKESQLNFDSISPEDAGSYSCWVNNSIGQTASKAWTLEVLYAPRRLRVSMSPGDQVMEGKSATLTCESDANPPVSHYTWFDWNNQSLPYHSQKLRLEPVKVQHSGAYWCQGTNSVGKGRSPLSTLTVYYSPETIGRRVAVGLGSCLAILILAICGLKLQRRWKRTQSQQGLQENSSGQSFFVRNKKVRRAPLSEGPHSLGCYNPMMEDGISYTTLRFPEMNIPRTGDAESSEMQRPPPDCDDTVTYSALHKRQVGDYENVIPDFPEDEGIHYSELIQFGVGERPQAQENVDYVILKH
# Experimental: (§1) The following proteins were used for CD22 ligand binding: biotinylated human siglec-2/CD22 protein-His-Avitag (Acro Biosystems, Cat #SI2-H82E3), biotinylated mouse siglec-2-Fc-Avi (in-house production), and recombinant cynomolgus siglec-2/CD22 His-tag (R&D systems, Cat #9864-SL-050). Prior to immobilization, CD22 proteins were treated with SialoExo (Genovis, Cat #G1-SM1-020) for 4 hours at 37° C. to remove native sialic acid residues.
# (§2) Capture of biotinylated CD22 constructs was performed using a Cytiva SA chip (BR100398) on a Biacore 8K instrument. Human siglec 2 was immobilized on channels 1-4 and mouse siglec 2 on channels 5-8 on the active flow cell (2) and the reference flow cell (1) was immobilized with biotinylated human FGFR2 Fc Avi, an unrelated protein, to account for any nonspecific binding. Human siglec 2 and Mouse siglec 2 were diluted in running buffer to 20 μg/mL and injected on the active flow cell (2) for 300 seconds at 5 μL/min, yielding about 3500 RU of captured constructs.
# (§3) Binding experiments of siglec-ligand conjugated proteins or Siglec ligand compounds were performed on the surfaces prepared above in 10 mM HEPES, 150 mM NaCl, 0.05% Tween-20, pH 7.5, 1% DMSO as the running buffer. Compounds were serially diluted in running buffer from 50 μM to 97.6 nM and injected over both the reference and active flow cells for 90 seconds at 30 μL/min. The compounds were then allowed to dissociate from the surface for 120 seconds. No regeneration was required as the compounds completely dissociated from the surface after 30 seconds. Solvent correction was performed using 0.5, 1, 1.5, and 2% DMSO spike into running buffer without DMSO. Data was analyzed using steady-state analysis in Biacore Insight Evaluation Software, version 3.0.
# [2] = target: T2, biotinylated mouse siglec-2-Fc-Avi (Mus musculus, UniProt P35329); assay: SPR binding to mouse siglec-2/CD22; conditions: steady-state analysis, read-out: Mouse CD22 affinity
# T2 construct: made in house
# T2 sequence (P35329 22-708 limits assumed): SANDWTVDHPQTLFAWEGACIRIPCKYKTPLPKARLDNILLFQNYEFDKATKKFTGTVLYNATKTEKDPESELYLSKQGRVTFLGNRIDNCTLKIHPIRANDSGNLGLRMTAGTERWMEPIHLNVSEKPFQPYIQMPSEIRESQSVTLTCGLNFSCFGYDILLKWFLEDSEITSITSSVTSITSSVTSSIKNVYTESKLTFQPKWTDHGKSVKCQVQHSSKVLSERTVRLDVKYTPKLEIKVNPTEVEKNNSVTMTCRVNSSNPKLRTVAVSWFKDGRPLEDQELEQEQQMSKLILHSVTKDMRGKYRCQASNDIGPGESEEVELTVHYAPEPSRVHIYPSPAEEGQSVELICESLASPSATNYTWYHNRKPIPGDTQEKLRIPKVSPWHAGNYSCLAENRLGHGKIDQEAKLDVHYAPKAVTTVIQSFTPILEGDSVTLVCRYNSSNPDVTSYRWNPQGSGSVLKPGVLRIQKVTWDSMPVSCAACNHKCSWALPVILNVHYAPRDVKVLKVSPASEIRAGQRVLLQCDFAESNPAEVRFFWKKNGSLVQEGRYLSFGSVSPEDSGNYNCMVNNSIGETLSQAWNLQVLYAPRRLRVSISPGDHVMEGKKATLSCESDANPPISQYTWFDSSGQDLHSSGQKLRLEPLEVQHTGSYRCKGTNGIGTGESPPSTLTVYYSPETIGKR
# Experimental: as §1, §2, §3
# [3] = target: recombinant cynomolgus siglec-2/CD22 His-tag (Macaca fascicularis, UniProt A0A2K5WCZ6); assay: SPR binding to cynomolgus siglec-2/CD22; conditions: steady-state analysis, read-out: Cyno CD22 affinity
# Chain of recombinant cynomolgus siglec-2/CD22 His-tag (A0A2K5WCZ6 entry or part of it): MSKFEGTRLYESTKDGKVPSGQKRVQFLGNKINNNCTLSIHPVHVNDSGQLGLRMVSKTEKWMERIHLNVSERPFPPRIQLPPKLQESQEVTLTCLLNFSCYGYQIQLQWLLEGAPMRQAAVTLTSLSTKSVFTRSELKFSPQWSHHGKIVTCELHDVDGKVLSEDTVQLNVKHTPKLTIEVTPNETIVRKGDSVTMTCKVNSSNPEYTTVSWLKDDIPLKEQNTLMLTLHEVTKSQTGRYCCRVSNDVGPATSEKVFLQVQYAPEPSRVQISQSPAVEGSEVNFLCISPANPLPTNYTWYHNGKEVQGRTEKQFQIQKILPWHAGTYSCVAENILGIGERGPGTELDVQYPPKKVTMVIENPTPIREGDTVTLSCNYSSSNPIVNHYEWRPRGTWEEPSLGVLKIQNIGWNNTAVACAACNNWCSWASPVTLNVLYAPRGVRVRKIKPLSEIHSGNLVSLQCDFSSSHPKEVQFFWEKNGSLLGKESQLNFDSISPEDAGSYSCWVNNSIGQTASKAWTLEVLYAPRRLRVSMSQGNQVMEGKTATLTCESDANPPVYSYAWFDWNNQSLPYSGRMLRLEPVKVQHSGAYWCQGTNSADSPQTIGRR
# Experimental: as §1
# Surface preparation for cyno CD22 protein consisted of amine coupling to Cytiva CM5 chip (Cytiva, Cat #BR100530) using the Cytiva amine coupling kit Type 2 (Cytiva, Cat #BR100633). Following the standard amine coupling protocols, EDC and NHS from the kit were mixed 1:1 and injected over flow cells 1 and 2. Cyno CD22 was then immobilized by injecting 10 μg/mL in Sodium Acetate, pH 5.5 onto flow cell (2) for 420 seconds at 10 uL/min, yielding approximately 2500 RU of captured protein. Any active carboxy groups were then capped with 1M Ethanolamine, pH 8.5 for 420 s on flow cells 1 and 2.
# as §3
Structure (SMILES),Kd [1],Kd [2],Kd [3]
"O=C(O)CCCCCCCCC#Cc1ccc(CC(=O)NC[C@@H](O)[C@@H](O)[C@@H]2O[C@@](OCc3ccccc3)(C(=O)O)C[C@H](O)[C@H]2NC(=O)CO)cc1 [Compound 14, (2R,4S,5R,6R)-2-(benzyloxy)-6-((1R,2R)-3-(2-(4-(10-carboxydec-1-yn-1-yl)phenyl)acetamido)-1,2-dihydroxypropyl)-4-hydroxy-5-(2-hydroxyacetamido)tetrahydro-2H-pyran-2-carboxylic acid]",1000 to 10000 nM,< 1000 nM,1000 to 10000 nM
"C#CCOCCOCCOCc1ccc(CC(=O)NC[C@@H](O)[C@@H](O)[C@@H]2O[C@@](OCc3ccccc3)(C(=O)O)C[C@H](O)[C@H]2NC(=O)CO)cc1 [Compound 9, (2R,4S,5R,6R)-2-(benzyloxy)-6-((1R,2R)-1,2-dihydroxy-3-(2-(4-((2-(2-(prop-2-yn-1-yloxy)ethoxy)ethoxy)methyl)phenyl)acetamido)propyl)-4-hydroxy-5-(2-hydroxyacetamido)tetrahydro-2H-pyran-2-carboxylic acid]",1000 to 10000 nM,1000 to 10000 nM,1000 to 10000 nM
"C#Cc1ccc(CC(=O)NC[C@@H](O)[C@@H](O)[C@@H]2O[C@@](OCCOCCOCCOC)(C(=O)O)C[C@H](O)[C@H]2NC(=O)CO)cc1 [Compound 25, (2R,4S,5R,6R)-6-((1R,2R)-3-(2-(4-ethynylphenyl)acetamido)-1,2-dihydroxypropyl)-4-hydroxy-5-(2-hydroxyacetamido)-2-(2-(2-(2-methoxyethoxy)ethoxy)ethoxy)tetrahydro-2H-pyran-2-carboxylic acid]",1000 to 10000 nM,1000 to 10000 nM,1000 to 10000 nM
"CCCNC(=O)CCOCCOCCOCCOCCn1cc(-c2ccc(CC(=O)NC[C@@H](O)[C@@H](O)[C@@H]3O[C@@](OCCCCCCOC)(C(=O)O)C[C@H](O)[C@H]3NC(=O)CO)cc2)nn1 [Compound 52, (2R,4S,5R,6R)-6-((1R,2R)-1,2-dihydroxy-3-(2-(4-(1-(15-oxo-3,6,9,12-tetraoxa-16-azanonadecyl)-1H-1,2,3-triazol-4-yl)phenyl)acetamido)propyl)-4-hydroxy-5-(2-hydroxyacetamido)-2-((6-methoxyhexyl)oxy)tetrahydro-2H-pyran-2-carboxylic acid]",1000 to 10000 nM,1000 to 10000 nM,1000 to 10000 nM
"C#Cc1ccc(CC(=O)NC[C@@H](O)[C@@H](O)[C@@H]2O[C@@](OCCCCCCc3cn(CCOCCOC)nn3)(C(=O)O)C[C@H](O)[C@H]2NC(=O)CO)cc1 [Compound 27, (2R,4S,5R,6R)-6-((1R,2R)-3-(2-(4-ethynylphenyl)acetamido)-1,2-dihydroxypropyl)-4-hydroxy-5-(2-hydroxyacetamido)-2-((6-(1-(2-(2-methoxyethoxy)ethyl)-1H-1,2,3-triazol-4-yl)hexyl)oxy)tetrahydro-2H-pyran-2-carboxylic acid]",< 1000 nM,< 1000 nM,< 1000 nM

# Second part, the molecule after the results:
Kd [1],Kd [2],Kd [3],Structure (SMILES)
< 1000 nM,1000 to 10000 nM,< 1000 nM,"C#Cc1ccc(CC(=O)NC[C@@H](O)[C@@H](O)[C@@H]2O[C@@](OCCCCCCOC)(C(=O)O)C[C@H](O)[C@H]2NC(=O)CO)cc1 [Compound 11, (2R,4S,5R,6R)-6-((1R,2R)-3-(2-(4-ethynylphenyl)acetamido)-1,2-dihydroxypropyl)-4-hydroxy-5-(2-hydroxyacetamido)-2-((6-methoxyhexyl)oxy)tetrahydro-2H-pyran-2-carboxylic acid]"
< 1000 nM,1000 to 10000 nM,< 1000 nM,"CCCNC(=O)CCOCCOCCOCCOCCn1cc(-c2ccc(CC(=O)NC[C@@H](O)[C@@H](O)[C@@H]3O[C@@](OCCCCCCNc4c(NCCOC)c(=O)c4=O)(C(=O)O)C[C@H](O)[C@H]3NC(=O)CO)cc2)nn1 [Compound 53, (2R,4S,5R,6R)-6-((1R,2R)-1,2-dihydroxy-3-(2-(4-(1-(15-oxo-3,6,9,12-tetraoxa-16-azanonadecyl)-1H-1,2,3-triazol-4-yl)phenyl)acetamido)propyl)-4-hydroxy-5-(2-hydroxyacetamido)-2-((6-((2-((2-methoxyethyl)amino)-3,4-dioxocyclobut-1-en-1-yl)amino)hexyl)oxy)tetrahydro-2H-pyran-2-carboxylic acid]"
< 1000 nM,< 1000 nM,1000 to 10000 nM,"C#Cc1ccc(CC(=O)NC[C@@H](O)[C@@H](O)[C@@H]2O[C@@](OCc3ccccc3)(C(=O)O)C[C@H](O)[C@H]2NC(=O)CO)cc1 [Compound 1, (2R,4S,5R,6R)-2-(benzyloxy)-6-((1R,2R)-3-(2-(4-ethynylphenyl)acetamido)-1,2-dihydroxypropyl)-4-hydroxy-5-(2-hydroxyacetamido)tetrahydro-2H-pyran-2-carboxylic acid]"
< 1000 nM,< 1000 nM,< 1000 nM,"C#Cc1ccc(CC(=O)NC[C@@H](O)[C@@H](O)[C@@H]2O[C@@](OCCCCCCn3cc(COCCOC)nn3)(C(=O)O)C[C@H](O)[C@H]2NC(=O)CO)cc1 [Compound 28, (2R,4S,5R,6R)-6-((1R,2R)-3-(2-(4-ethynylphenyl)acetamido)-1,2-dihydroxypropyl)-4-hydroxy-5-(2-hydroxyacetamido)-2-((6-(4-((2-methoxyethoxy)methyl)-1H-1,2,3-triazol-1-yl)hexyl)oxy)tetrahydro-2H-pyran-2-carboxylic acid]"
< 1000 nM,< 1000 nM,< 1000 nM,"CCCCCCO[C@]1(C(=O)O)C[C@H](O)[C@@H](NC(=O)CO)[C@H]([C@H](O)[C@H](O)CNC(=O)Cc2ccc(-c3cn(CCOCCOCCOCCC(=O)NCC)nn3)cc2)O1 [Compound 16, (2R,4S,5R,6R)-6-((1R,2R)-1,2-dihydroxy-3-(2-(4-(1-(12-oxo-3,6,9-trioxa-13-azapentadecyl)-1H-1,2,3-triazol-4-yl)phenyl)acetamido)propyl)-2-(hexyloxy)-4-hydroxy-5-(2-hydroxyacetamido)tetrahydro-2H-pyran-2-carboxylic acid]"
